Patent US20050261292A1, “Pharmaceutical composition containing N-sulfamoyl-N'-arylpiperazines for the treatment or inhibition of obesity and related conditions” (Solvay Pharmaceuticals GmbH, priority 2004, published 2005)
Counter-ions that a name gives are not always drawn.

Experiments:
[1] = biological target: T1, human carbonic anhydrase isoenzyme II (hCA II) (Homo sapiens, UniProt P00918); test: In vitro inhibition of human carbonic anhydrase isoenzyme II (hCA II), dansylamide fluorescence; assay type: biochemical; details: hCA II from erythrocytes 10^-7 M, 60 min, single measurements, read-out: hCA II inhibiting effect in vitro, IC50
T1 construct: human carbonic anhydrase isoenzyme II from erythrocytes (Sigma-Aldrich); purchased Sigma-Aldrich; host or cells: human erythrocytes (natural source)
Procedure: 1. In vitro Inhibition of Human Carbonic Anhydrase Isoenzyme II (hCA II)
The test compounds of Formula I in 96 well microplates were diluted with aqua bidest by using an automatic pipettor (CyBiWell®). From the different dilution plates, aliquots of 20 μl were transferred to the 96 well black assay plates with a pipetting station (Tecan Genesis®). In a second step, 148 μl of potassium phosphate buffer (20 mM, pH 7.4) was added, and as a third step, 20 μl of enzyme solution (1 μM human carbonic anhydrase isoenzyme II from erythrocytes (Sigma-Aldrich), dissolved in potassium phosphate buffer) incubated for 60 min at room temperature and the fluorescence signal (Tecan Ultra® fluorescence reader; excitation wavelength: 280 nm; emission wavelength: 465 nm) read at the end of the preincubation period (FLU-1). After the preincubation time, 20 μl of aqueous dansylamide solution (1 mM dansylamide (Sigma-Aldrich), dissolved in hydrochloric acid) were added and the fluorescence signal read every 10 min for a period of 60 min at 37° C. For calculation, the fluorescence data of the time point 60 min (FLU-2) were used. The total volume of assay mixture amounted to 208 μl. The final concentration of carbonic anhydrase II was 10^−7 M/L, of dansylamide 2.25×10^−6 and of compounds from 10^−8 M/L up to 10^−5 M/L. Final concentration of DMSO as compound solvent was […]. Each microplate also contained blanks without compound and enzyme, controls without compound and ethoxzolamide (final concentration 5×10^−8 M/L). All data reflect single measurements. Data were expressed as % inhibition after calculation by the formula: % inhibition=100((1−(FLU−2cpd−FLU−2blank−FLU−1cpd+FLU−1blank)/(FLU−2control−FLU−2blank−FLU−1control−FLU−1blank))
The % inhibition data for each compound and the respective final concentrations were used for IC50 calculations by using the Prism 4 software. Concentration action figures were calculated by applying the Prism algorithm for nonlinear regression (curve-fit): sigmoidal dose response with variable slope and the constraints: top: 100 and bottom 0.

male fatty Zucker rats = test: In vivo oral glucose tolerance test in the rat; details: 100 mg/kg/day oral gavage; for Glucose Baseline / Insulin Baseline: 0 min sample before glucose challenge; for Insulin Baseline / Insulin AUC / Insulin Maximal effect: plasma; for Glucose Maximal effect / Glucose AUC / Insulin AUC / Insulin Maximal effect: oral glucose challenge 1.25 g/kg; for Glucose AUC / Insulin AUC: 0-120 min
Procedure: 2. In vivo Oral Glucose Tolerance Test in the Rat
The studies were carried out in individually housed male fatty Zucker rats (n=10 per group) weighing ca. 250-500 g. The rats were kept on a normal 12/12 h light/dark cycle (lights on 07.00) and they were allowed food (lab chow) and water ad libitum except for during experiments, when they were fasted overnight before the glucose challenge.
The test substances of Formula I were suspended in 2% polyethylenglycol (=PEG) 1% carboxymethylcellulose and administered by oral gavage at a dose of 100 mg/kg/day; ⅓ of the dose (1 ml/kg, 33 mg/ml) was administered at 08.30-09.30 h; the remaining […] (2 ml/kg; 33 mg/ml) was administered between 16.00-17.00 h and the last ⅓ dose was given the following morning. Control animals received only the vehicle. On the day of the test, 45 min after the final dose of test substance/vehicle a blood sample (0 min) was taken (tail vein) immediately after which the rats received an oral glucose challenge (1.25 g/kg; 118 mg/ml). Further blood samples were taken at 30, 60, 90, 120 min after the glucose challenge. The second drop of blood of each sample was placed on a glucose test strip before this was placed in the glucose meter for determination of blood glucose level (Life Scan One Touch Ultra Blood® Glucose Meter and Life Scan One Touch Ultra® Test Strips; Life Scan Inc.; Milpitas, Calif. 95035). The remaining blood of each sample was spun and the plasma was frozen at −80° C. before analysis for insulin (1-2-3 Rat Insulin ELISA kit, Alpco Diagnostics).
The values obtained were plotted and the AUC for test compounds and vehicle (for glucose and insulin) were determined after which the percent control AUC, percent control maximum value and % control baseline were estimated, to determine the influence of the test compound on the glucose tolerance.

male C57Bl/6 mice = test: Acute in vivo food intake test in mice; details: high caloric diet, 100 mg/kg/day oral gavage in two halves
Procedure: 3. Acute in vivo Food Intake Test in Mice
The studies were carried out in individually housed male C57Bl/6 mice (n=8 per group). The mice were kept on an inverted 12/12 h light/dark cycle (lights on 22:00). They were allowed food (high caloric diet) and water ad libitum. Food intake and water consumption was measured daily. The test compound of Formula I was suspended in 1% methylcellulose in water and 2% (v/v) of Poloxamer 188 (Lutrol F68®) and administered by oral gavage at a dose of 100 mg/kg/day.
In the test model described above, the test substances caused a decrease of the animals' 24 h food intake to the percentages of food intake when compared to control as given in table 3 below.

SMILES | melting point [°C] | IC50 [1] [nM] | other results
NS(=O)(=O)N1CCN(c2ccncc2)CC1 (as salt: HCl) [Example 6, 4-pyridin-4-yl-piperazine-1-sulfonic acid amide] | 243 | – | –
Cc1cccc(N2CCN(S(N)(=O)=O)CC2)c1C (as salt: HCl) [Example 8] | 202 | – | –
NS(=O)(=O)N1CCN(c2ccc(F)cc2)CC1 (as salt: HCl) [Example 9, 4-(4-fluoro-phenyl)-piperazine-1-sulfonic acid amide] | 125 | – | –
Cc1ccc(Cl)cc1N1CCN(S(N)(=O)=O)CC1 (as salt: HCl) [Example 11] | 190 | – | –
NS(=O)(=O)N1CCN(c2ccc(Cl)c(C(F)(F)F)c2)CC1 (as salt: HCl) [Example 12, 4-(4-chloro-3-trifluoromethyl-phenyl)-piperazine-1-sulfonic acid amide] | 180 | – | –
N#Cc1cccnc1N1CCN(S(N)(=O)=O)CC1 (as salt: HCl) [Example 13] | 190 | – | –
NS(=O)(=O)N1CCN(c2ncc(C(F)(F)F)cc2Cl)CC1 (as salt: HCl) [Example 14, 4-(3-chloro-5-trifluoromethyl-pyridin-2-yl)-piperazine-1-sulfonic acid amide] | 159 | – | –
CC(=O)c1ccc(N2CCN(S(N)(=O)=O)CC2)cc1 (as salt: HCl) [Example 15] | 156 | – | –
NS(=O)(=O)N1CCN(c2c(Cl)cncc2Cl)CC1 (as salt: HCl) [Example 16] | 206 | – | –
NS(=O)(=O)N1CCN(c2cc(C(F)(F)F)nc3ccccc23)CC1 (as salt: HCl) [Example 17] | 191 | – | –
NS(=O)(=O)N1CCN(c2nccc(C(F)(F)F)n2)CC1 (as salt: HCl) [Example 18] | 156 | – | –
NS(=O)(=O)N1CCN(c2ccc(C(F)(F)F)cn2)CC1 (as salt: HCl) [Example 19] | 169 | – | –
NS(=O)(=O)N1CCN(c2ccc(C(F)(F)F)cc2[N+](=O)[O-])CC1 (as salt: HCl) [Example 20] | 134 | – | –
CS(=O)(=O)c1ccc(N2CCN(S(N)(=O)=O)CC2)c(F)c1 (as salt: HCl) [Example 21] | 184 | – | –
COc1ccccc1N1CCN(S(N)(=O)=O)CC1 [Example 3, 4-(2-Methoxy-phenyl)-piperazine-1-sulfonic acid amide hydrochloride] | – | 7800 | –
NS(=O)(=O)N1CCN(c2ccccn2)CC1 [Example 4, 4-Pyridin-2-yl-piperazine-1-sulfonic acid amide] | – | 3700 | –

SMILES | melting point [°C] | IC50 [1] [nM] | other results
NS(=O)(=O)N1CCN(c2ccncc2)CC1 [Example 6, 4-pyridin-4-yl-piperazine-1-sulfonic acid amide] | – | – | Glucose Baseline (male fatty Zucker rats): 91 % of control; Insulin Baseline (male fatty Zucker rats): 109 % of control; Glucose Maximal effect (male fatty Zucker rats): 84 % of control; Glucose AUC (male fatty Zucker rats): 89 % of control; Insulin AUC (male fatty Zucker rats): 104 % of control; Insulin Maximal effect (male fatty Zucker rats): 123 % of control
NS(=O)(=O)N1CCN(c2ncccn2)CC1 [Example 7, 4-pyrimidin-2-yl-piperazine-1-sulfonic acid amide] | – | 1800 | 24 h food intake (male C57Bl/6 mice): 78 % of control
Cc1cccc(N2CCN(S(N)(=O)=O)CC2)c1C [Example 8] | – | 1700 | –
NS(=O)(=O)N1CCN(c2ccc(F)cc2)CC1 [Example 9, 4-(4-fluoro-phenyl)-piperazine-1-sulfonic acid amide] | – | 7300 | –
NS(=O)(=O)N1CCN(c2cccc(Cl)c2)CC1 [Example 10] | – | 4000 | –
Cc1ccc(Cl)cc1N1CCN(S(N)(=O)=O)CC1 [Example 11] | – | 500 | –
NS(=O)(=O)N1CCN(c2ccc(Cl)c(C(F)(F)F)c2)CC1 [Example 12, 4-(4-chloro-3-trifluoromethyl-phenyl)-piperazine-1-sulfonic acid amide] | – | 1200 | 24 h food intake (male C57Bl/6 mice): 53 % of control
N#Cc1cccnc1N1CCN(S(N)(=O)=O)CC1 [Example 13] | – | 900 | –
NS(=O)(=O)N1CCN(c2ncc(C(F)(F)F)cc2Cl)CC1 [Example 14, 4-(3-chloro-5-trifluoromethyl-pyridin-2-yl)-piperazine-1-sulfonic acid amide] | – | 200 | Glucose Baseline (male fatty Zucker rats): 88 % of control; Insulin Baseline (male fatty Zucker rats): 97 % of control; Glucose Maximal effect (male fatty Zucker rats): 94 % of control; Glucose AUC (male fatty Zucker rats): 102 % of control; Insulin AUC (male fatty Zucker rats): 107 % of control; Insulin Maximal effect (male fatty Zucker rats): 92 % of control
CC(=O)c1ccc(N2CCN(S(N)(=O)=O)CC2)cc1 [Example 15] | – | 400 | 24 h food intake (male C57Bl/6 mice): 79 % of control
NS(=O)(=O)N1CCN(c2c(Cl)cncc2Cl)CC1 [Example 16] | – | 300 | –
NS(=O)(=O)N1CCN(c2cc(C(F)(F)F)nc3ccccc23)CC1 [Example 17] | – | 1900 | –
NS(=O)(=O)N1CCN(c2nccc(C(F)(F)F)n2)CC1 [Example 18] | – | 1600 | –
NS(=O)(=O)N1CCN(c2ccc(C(F)(F)F)cn2)CC1 [Example 19] | – | 80 | –
NS(=O)(=O)N1CCN(c2ccc(C(F)(F)F)cc2[N+](=O)[O-])CC1 [Example 20] | – | 300 | –
CS(=O)(=O)c1ccc(N2CCN(S(N)(=O)=O)CC2)c(F)c1 [Example 21] | – | 200 | 24 h food intake (male C57Bl/6 mice): 76 % of control
